Experiment [1] relates to E. coli JM83 cells carrying plasmid pCH110. Nature of the experiment: Bacterial membrane permeabilization assay (β-galactosidase release). Type of experiment: cell-based. The protocol:
We tested the activity of the L. sericata AMPs against E. coli JM83, carrying plasmid pCH110 (Pharmacia-Amersham, Piscatway, NJ, USA).
Membrane permeabilization was quantified by measuring the activity of β-galactosidase released from E. coli JM83 cells carrying plasmid pCH110, which encodes a constitutive, cytoplasmic form of the enzyme ([Zdybicka-Barabas et al., 2013]). The peptides were pre-incubated for 15 min at 37°C in 23 μl 20 mM phosphate buffer (pH 6.8) before adding 2 μl of a suspension of mid-logarithmic phase E. coli cells (5 × 10^5 colony forming units, prepared in the same buffer). The final AMP concentrations were 0.0625–2 µM Lser-stomoxyn and up to 50 µM for the Lser-PRPs ([Pöppel et al., 2015]; [Hirsch et al., 2019]). After incubation for 45 min at 37°C, we added 220 μl 20 mM HEPES/150 mM NaCl (pH 7.5) and 5 μl 50 mM p-nitrophenyl-β-D-galactopyranoside. We incubated the samples at 37°C for a further 90 min and then measured the absorbance at 405 nm, which is proportional to the amount of released β-galactosidase. Live bacteria incubated in growth medium as well as dead bacteria after treatment with 5 µM synthetic cecropin B (Sigma-Aldrich) served as control samples. We set the perforation level of dead bacteria to 100%. All assays were performed six times in triplicate for each type of sample.

A further experiment deals with E. coli JM83. Kind of experiment: Atomic force microscopy of bacterial cell surface. It is filed as cell-based. Conditions: 90 min at 37°C. The procedure: Bacterial samples were prepared for atomic force microscopy (AFM) as previously described ([Zdybicka-Barabas et al., 2012]; [Zdybicka-Barabas et al., 2013]). Briefly, log-phase E. coli JM83 cells (OD600 = 0.2) in 100 µL lysogeny broth were incubated at 37°C for 90 min in the presence of individual or combined AMPs, or without AMPs as a negative control. We used concentrations of 50 μM Lser-PRP2, 50 μM Lser-PRP3, and 0.25 μM Lser-stomoxyn. The samples were centrifuged (8,000 × g, 4°C, 10 min), washed twice with apyrogenic water, resuspended in 5 μl apyrogenic water, applied to mica disks and allowed to dry at 28°C overnight.
The cell surface was imaged using a NanoScope V AFM (Veeco, Plainview, NY, USA) in Peak Force QNM operation mode and a silicon tip NSG 30 with a spring constant of 20 N/m (NT-MDT, Moscow, Russian Federation). The results were processed using Nanoscope Analysis v1.40 (Veeco). Three fields on each mica disk were imaged. The roughness values were measured over the entire bacterial cell surface in 3 × 3 µm areas. The average surface root mean square (RMS) roughness was calculated from 25 fields (300 × 300 nm). Section profiles and 3D images were produced using WSxM v5.0 ([Horcas et al., 2007]).

Another experiment deals with Gram-negative bacteria. As to conditions: ref Pöppel et al., 2015; Hirsch et al., 2019; cited from earlier work. From the text: Several previous investigations have addressed the AMP repertoire of L. sericata. […] More recent studies have characterized the defensin-family AMP lucifensin ([Andersen et al., 2010]; [Čeřovský et al., 2010]; [Čeřovský et al., 2011]) and the antifungal AMP lucimycin ([P ...

The test system of experiment [2] is panel of 114 multi-drug resistant clinical isolates. On the set-up: method as in Hirsch et al., 2019. Conditions: ref Hirsch et al., 2019; cited from earlier work.
For another experiment, the target named is T1, bacterial chaperone DnaK (Escherichia coli, UniProt P0A6Y8).
T1 construct: made in house
T1 sequence (P0A6Y8 whole entry): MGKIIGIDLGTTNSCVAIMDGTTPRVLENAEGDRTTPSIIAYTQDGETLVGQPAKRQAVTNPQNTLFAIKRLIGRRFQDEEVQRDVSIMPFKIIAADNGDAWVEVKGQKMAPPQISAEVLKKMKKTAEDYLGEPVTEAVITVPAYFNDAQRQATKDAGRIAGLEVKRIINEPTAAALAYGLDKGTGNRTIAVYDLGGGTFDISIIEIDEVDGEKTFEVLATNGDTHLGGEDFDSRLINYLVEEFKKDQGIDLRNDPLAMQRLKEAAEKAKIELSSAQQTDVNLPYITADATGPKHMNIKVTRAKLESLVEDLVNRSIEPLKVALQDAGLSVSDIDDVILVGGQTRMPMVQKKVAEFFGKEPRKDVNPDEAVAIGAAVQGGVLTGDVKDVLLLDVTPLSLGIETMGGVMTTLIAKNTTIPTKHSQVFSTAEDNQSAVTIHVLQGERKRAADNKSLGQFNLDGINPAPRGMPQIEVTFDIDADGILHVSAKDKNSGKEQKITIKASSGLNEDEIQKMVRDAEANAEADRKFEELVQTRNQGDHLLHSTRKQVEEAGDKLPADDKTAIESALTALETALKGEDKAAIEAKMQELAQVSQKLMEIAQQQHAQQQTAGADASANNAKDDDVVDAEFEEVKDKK
Kind of experiment: FRET assay, DnaK-binding (fluorescence quenching with DnaK-BHQ10). Conditions: for maximum quenching effect: n = 3; for Kd: N-terminal 5(6)-carboxyfluorescein, C-terminal amide, quenching assay, non-linear regression (SlideWrite v7.01). The procedure:
Lser-stomoxyn, Lser-PRP2, and Lser-PRP3 were synthesized by PANATecs (Tübingen, Germany) at >95% purity with C-terminal amidation (Table 1). For the quenching assay, Lser-PRP2 and Lser-PRP3 were synthesized with N-terminal 5(6)-carboxyfluorescein and C-terminal amidation. DnaK was produced by Michael Zahn ([Knappe et al., 2011]). The Black Hole Quencher 10 succinimidyl ester (BHQ10-NHS ester, > 75% purity) was purchased from BioCat (Heidelberg, Germany).
DnaK (2 mg/ml) was dialyzed against the modifying buffer (20 mM Na2HPO4, 20 mM KH2PO4, 5 mM MgCl2, 150 mM KCl; pH 7.4) before labeling with a 10-fold molar excess of BHQ10-NHS ester ([Kreisig et al., 2011]; [Dobslaff et al., 2012]). Excess BHQ10 was removed by further dialysis and the final DnaK concentration was adjusted to […]. To evaluate the labeling efficiency, we measured BHQ10 absorption at 515 nm, and calculated the ratio of dye to protein (mean labeling degree, nine BHQ10 molecules per DnaK).
We mixed 50 μl of the fluorescein-modified peptides (1.3 nM) with 50 μl of a 1:4 serial dilution series of DnaK-BHQ10 in modification buffer (0.8–13,000 nM) in a solid black 384-well plate and incubated the plates for 2 h as previously described ([Dobslaff et al., 2012]). To calculate the quenching effect, control mixtures (50 μl of the peptide solution and 50 μl of the modification buffer) were recorded five times. We recorded the fluorescence intensity on a Paradigm fluorescence reader using a fluorescence (fluo-rhod) detection cartridge (excitation wavelength = 485 ± 10 nm, emission wavelength = 535 ± 12.5 nm, integration time = 140 ms). The quenching effect was expressed as the percentage of the fluorescence intensity of the control quenched after the addition of DnaK-BHQ10.
Dissociation constants (Kd) were determined using SlideWrite v7.01. The quenching effects were plotted against the DnaK concentration (logarithmic abscissa). Kd values were calculated by non-linear regression using the dose–response logistical transition function of the program [y = a 0 + a 1/(1 + x/a 2) a3].

[3] abbreviates: Figure 2 legend, N-terminal 5(6)-carboxyfluorescein peptide, DnaK-BHQ10.
Setting [4] is: N-terminal 5(6)-carboxyfluorescein peptide (1.3 nM) + DnaK-BHQ10 (0.8–13,000 nM), 2 h, 384-well, pH 7.4, sigmoidal curve.

Ends that are not written are not given here.

In the case of “GFRKRFNKLVKKVKHTIKETANVSKDVAIVAGSGVAVGAAMG [Lser-Stomoxyn, Lucilia sericata canonical α-helical antimicrobial peptide, synthesized at >95% purity with C-terminal amidation]”, the bacterial membrane permeabilization was 1% in experiment [1] (0.25 µM, abstract); 12% in experiment [1] (1 µM, 45 min at 37°C, bacteria killed by 5 µM cecropin B = 100%, n = 6); 40% in experiment [1] (2 µM, 45 min at 37°C, bacteria killed by 5 µM cecropin B = 100%, n = 6); “little evidence of permeabilization” in experiment [1] (0.0625 or 0.125 µM, 45 min at 37°C, 20 mM phosphate pH 6.8, n = 6); 1–2% in experiment [1] (0.25–0.5 µM, 45 min at 37°C, bacteria killed by 5 µM cecropin B = 100%, n = 6). Further, the Adhesion forces in the experiment with E. coli JM83 (0.25 µM, mean ± SD of 25 fields, control 0.174 (± 0.04), ***p ≤ 0.001 vs control, letter a: differs from combination) is listed as 0.236 (± 0.079)^a*** nN. The Roughness in the experiment on E. coli JM83 (0.25 µM, mean ± SD of 25 fields, control 0.843 (± 0.22), ***p ≤ 0.001 vs control, letter b: differs from combination) was 1.102 (± 0.373)^b*** nm. For the same substance, in the experiment with E. coli JM83 (0.25 µM, mean ± SD of 25 fields, control 2458 (± 24.52), **p ≤ 0.01 vs control), the “Young's modulus” value is 2601 (± 32.19)** MPa. Further, the flagella result with E. coli JM83 (Lser-stomoxyn 0.25 µM alone) is on record as “lost their flagella”. For the same substance, the “cell surface granularity vs controls” value in the experiment with E. coli JM83 (Lser-stomoxyn 0.25 µM or Lser-PRP2 50 µM alone) is reported as “considerably more granular than that of the controls”. In addition, the antibacterial activity result in the experiment on Gram-negative bacteria is given as “particularly active against Gram-negative bacteria”. Also, in experiment [2], the “activity against clinical isolates” value was “showed activity against clinical isolates of E. coli, Enterobacter spp., Klebsiella spp., Salmonella enterica, Citrobacter freundii, and Acinetobacter spp., as well as multiple isolates of P. aeruginosa”.
Usually Kd stands for the constant that tells how readily two partners part at equilibrium. Take “EWRPHGSIGGSGLRPGRPQTLPPQRPRRPDFNGPRHRF-NH2 [Lser-PRP2]”: the maximum quenching effect at bacterial chaperone DnaK (setting [3]) is on record as > 80%; on bacterial chaperone DnaK (setting [4]), 85–88%. This substance also registered a Kd on bacterial chaperone DnaK of 140 ± 10 nM.
Take “SPFVDRPRRPIQHNGPKPRIITNPPFNPNARPAW-NH2 [Lser-PRP3]”: the values for the maximum quenching effect on bacterial chaperone DnaK (setting [3]) and on bacterial chaperone DnaK (setting [4]) were > 80% and 85–88%, respectively. In addition, the dissociation constant Kd on bacterial chaperone DnaK is 300 ± 6 nM.
